Consider 9 substances from US20030187240A1, “2' -modified oligonucleotides” (ISIS Pharmaceuticals, Inc., priority 1990, published 2003).

Where “and” joins values, the source holds several entries; their conditions need not be identical. Equal entries are not always repeated. Entries after “also recorded” stand apart in the source; their conditions may differ. Strand notation (5' to 3'): a small letter for the sugar, then the base; units joined by * are phosphorothioate-linked, units joined directly phosphodiester-linked; [ ] holds rarer units or linkages, { } end groups; capitals alone tell only the bases. d = 2'-deoxy (DNA); m = 2'-O-methyl

The subject of series [1] is codon-12 point mutation of mutant (activated) H-ras RNA. Format: cell-based, human.
The subject of another series is ras mRNA. The experiment in a line: Northern blot analysis of ras expression in T24 cells. Format: cell-based, human. Further details: inhibition of ras expression / decrease of ras mRNA: concentration or dose not given beside the values. The note with it: for inhibition of ras expression in T24 cells: result in words. The method, then:
(§1) The human urinary bladder cancer cell line T24 was obtained from the American Type Culture Collection (Rockville Md.). Cells were grown in McCoy's 5A medium with L-glutamine (GIBCO-BRL, Gaithersburg, Md.), supplemented with 10% heat-inactivated fetal calf serum and 50 U/ml each of penicillin and streptomycin. Cells were seeded on 100 mm plates. When they reached 70% confluency, they were treated with oligonucleotide. Plates were washed with 10 ml prewarmed PBS and 5 ml of OptiMEM (GIBCO) reduced-serum medium containing 2.5 μl DOTMA. Oligonucleotide was then added to the desired concentration. After 4 hours of treatment, the medium was replaced with McCoy's medium. Cells were harvested 48 hours after oligonucleotide treatment and RNA was isolated using a standard CsCl purification method. [Kingston in Current Protocols in Molecular Biology, F. M. Ausubel, R. Brent, R. E. Kingston, D. D. Moore, J. A. Smith, J. G. Seidman and K. Strahl, Eds., John Wiley and Sons, New York.] The human epithelioid carcinoma cell line HeLa 229 was obtained from the American Type Culture Collection (Bethesda, Md.). HeLa cells were maintained as monolayers on 6-well plates in Dulbecco's Modified Eagle's medium (DMEM) supplemented with 10 fetal bovine serum and 100 U/ml penicillin. Treatment with oligonucleotide and isolation of RNA were essentially as described above for T24 cells.
Northern hybridization: 10 μg of each RNA was electrophoresed on a 1.2% agarose/formaldehyde gel and transferred overnight to GeneBind 45 nylon membrane (Pharmacia LKB, Piscataway, N.J.) using standard methods. [Kingston in Current Protocols in Molecular Biology, F. M. Ausubel, R. Brent, R. E. Kingston, D. D. Moore, J. A. Smith, J. G. Seidman and K. Strahl, Eds., John Wiley and Sons, New York.] RNA was UV-crosslinked to the membrane. Double-stranded ^32P-labeled probes were synthesized using the Prime a Gene labeling kit (Promega, Madison Wis.). The ras probe was a SalI-NheI fragment of a cDNA clone of the activated (mutant) H-ras mRNA having a GGC-to-GTC mutation at codon-12. The control probe was G3PDH. Blots were prehybridized for 15 minutes at 68° C. with the QuickHyb hybridization solution (Stratagene, La Jolla, Calif.). The heat-denatured radioactive probe (2.5×10^6 counts/2 ml hybridization solution) mixed with 100 μl of 10 mg/ml salmon sperm DNA was added and the membrane was hybridized for 1 hour at 68° C. The blots were washed twice for 15 minutes at room temperature in 2×SSC/0.1% SDS and once for 30 minutes at 60° C. with 0.1×SSC/0.1%SDS. Blots were autoradiographed and the intensity of signal was quantitated using an ImageQuant PhosphorImager (Molecular Dynamics, Sunnyvale, Calif.). Northern blots were first hybridized with the ras probe, then stripped by boiling for 15 minutes in 0.1×SSC/0.1%SDS and rehybridized with the control G3PDH probe to check for correct sample loading.

The test system of series [2] is T24 cancer cell proliferation. Briefly: Inhibition of proliferation of cancer cells. Format: cell-based, human. The note with it: for inhibition of cell proliferation / IC50: T24 cells; for IC50: dose-response study. The protocol:
Cells were cultured and treated with oligonucleotide essentially as described in Example 27. Cells were seeded on 60 mm plates and were treated with oligonucleotide in the presence of DOTMA when they reached 70% confluency. Time course experiment: On day 1, cells were treated with a single dose of oligonucleotide at a final concentration of 100 nM. The growth medium was changed once on day 3 and cells were counted every day for 5 days, using a counting chamber. Dose-response experiment: Various concentrations of oligonucleotide (10, 25, 50, 100 or 250 nM) were added to the cells and cells were harvested and counted 3 days later. Oligonucleotides 2570, 3985 and 4690 were tested for effects on T24 cancer cell proliferation.

Another series deals with c-raf mRNA. The experiment in a line: Northern blot analysis of inhibition of c-raf mRNA expression in T24 cells. Format: cell-based, human. The text has this:
Chimeric oligonucleotides having SEQ ID NO: 7 were designed using the Genbank c-raf sequence HUMRAFR (Genbank listing x03484), synthesized and tested for inhibition of c-raf mRNA expression in T24 bladder carcinoma cells using a Northern blot assay. These chimeric oligonucleotides have central “gap” regions of 6, 8 or 10 deoxynucleotides flanked by two regions of 2′-O-methyl modified nucleotides, and are shown in Table 10. Backbones were uniformly phosphorothioate. […] These oligonucleotides are preferred.
The human urinary bladder cancer cell line T24 was obtained from the American Type Culture Collection (Rockville, Md.). Cells were grown in McCoy's 5A medium with L-glutamine (GIBCO-BRL, Gaithersburg, Md.), supplemented with 10% heat-inactivated fetal calf serum and 50 U/ml each of penicillin and streptomycin. Cells were seeded on 100 mm plates. When they reached 70% confluency, they were treated with oligonucleotide. Plates were washed with 10 ml prewarmed PBS and 5 ml of OptiMEM reduced-serum medium containing 2.5 μl DOTMA. Oligonucleotide with lipofectin was then added to the desired concentration. After 4 hours of treatment, the medium was replaced with McCoy's medium. Cells were harvested 24 to 72 hours after oligonucleotide treatment and RNA was isolated using a standard CsCl purification method. [Kingston in Current Protocols in Molecular Biology, F. M. Ausubel, R. Brent, R. E. Kingston, D. D. Moore, J. A. Smith, J. G. Seidman and K. Strahl, Eds., John Wiley and Sons, New York.] Total RNA was isolated by centrifugation of cell lysates over a CsCl cushion. RNA samples were electrophoresed through 1.2% agarose-formaldehyde gels and transferred to hybridization membranes by capillary diffusion over a 12-14 hour period. The RNA was cross-linked to the membrane by exposure to UV light in a Stratalinker (Stratagene, La Jolla, Calif.) and hybridized to random-primed ^32P-labeled c-raf cDNA probe (obtained from ATCC) or G3PDH probe as a control. RNA was quantitated using a Phosphorimager (Molecular Dynamics, Sunnyvale, Calif.).

In series [3] the test system is ras expression in HeLa cells (wild-type H-ras codon-12). Briefly: Northern blot analysis of ras expression in HeLa cells. Format: cell-based, human. The method, then: as §1, with “The human epithelioid carcinoma cell line HeLa 229 was obtained from the American Type Culture Collection (Bethesda, Md.). HeLa cells were maintained as monolayers on 6-well plates in Dulbecco's Modified Eagle's medium (DMEM) supplemented with 10 fetal bovine serum and 100 U/ml penicillin. Treatment with oligonucleotide and isolation of RNA were essentially as described above for T24 cells.” left out
Northern hybridization: 10 μg of each RNA was electrophoresed on a 1.2% agarose/formaldehyde gel and transferred overnight to GeneBind 45 nylon membrane (Pharmacia LKB, Piscataway, N.J.) using standard methods. […] Blots were autoradiographed and the intensity of signal was quantitated using an ImageQuant PhosphorImager (Molecular Dynamics, Sunnyvale, Calif.). […]

Series [4] deals with crude HeLa cellular extracts.
Another series deals with H-ras. Briefly: ras transactivation reporter gene assay. The note with it: antisense activity against H-ras, 17-mer with 7-deoxy gap. Format: cell-based. The text has this: The expression plasmid pSV2-oli, containing an activated (codon 12, GGC→GTC) H-ras cDNA insert under control of the constitutive SV40 promoter, was a gift from Dr. Bruno Tocque (Rhone-Poulenc Sante, Vitry, France). This plasmid was used as a template to construct, by PCR, a H-ras expression plasmid under regulation of the steroid-inducible mouse mammary tumor virus (MMTV) promoter. To obtain H-ras coding sequences, the 570 bp coding region of the H-ras gene was amplified by PCR. The PCR primers were designed with unique restriction endonuclease sites in their 5′-regions to facilitate cloning. The PCR product containing the coding region of the H-ras codon 12 mutant oncogene was gel purified, digested, and gel purified once again prior to cloning. This construction was completed by cloning the insert into the expression plasmid pMAMneo (Clontech Laboratories, Calif.).
The ras-responsive reporter gene pRD053 was used to detect ras expression. [Owen et al., Proc. Natl. Acad. Sci. U.S.A., 87, 3866 (1990).

The test system of series [5] is 25 mer oligoribonucleotide complement. The experiment in a line: Melting curves of 2′-modified 17-mers with 7-deoxy gap. Format: binding. The note with it: 17-mer with 7-deoxy gap hybridized with 25 mer oligoribonucleotide complement. The text has this:
This is attributed to these phosphodiester compounds being substrates for nucleases that degrade such phosphodiester compounds thus preventing them potentially activating RNase H. Other sugar modifications: The effects of other 2′ sugar modifications besides 2′-O-methyl on antisense activity in chimeric oligonucleotides have been examined. These modifications are listed in Table 4, along with the Tm values obtained when 17 mer oligonucleotides having 2′-modified nucleotides flanking a 7-base deoxy gap were hybridized with a 25 mer oligoribonucleotide complement as described in Example 25. […] As alkyl length increased, Tm decreased.
Absorbance vs. temperature curves were measured at 260 nm using a Gilford 260 spectrophotometer interfaced to an IBM PC computer and a Gilford Response II spectrophotometer. The buffer contained 100 mM Na^+, 10 mM phosphate and 0.1 mM EDTA, pH 7. Oligonucleotide concentration was 4 μM each strand determined from the absorbance at 85° C. and extinction coefficients calculated according to Puglisi and Tinoco [Methods in Enzymol., 180, 304 (1989). Tm values, free energies of duplex formation and association constants were obtained from fits of data to a two state model with linear sloping baselines. [Petersheim and Turner, Biochemistry, 22, 256 (1983). Reported parameters are averages of at least three experiments. For some oligonucleotides, free energies of duplex formation were also obtained from plots of Tm^−1 vs log10 (concentration). Borer et al., J. Mol. Biol., 86, 843 (1974).

As for “3985 (CCACACCGACGGCGCCC; 2'-O-methyl wings, phosphorothioate, wing lengths not given here) [Oligonucleotide 3985]”, the “inhibition of ras-luciferase activity” value in series [1] is listed as “greatest inhibition”. For the same substance, the “inhibition of ras expression / decrease of ras mRNA” value with ras mRNA was 95% and 81%. Further, in series [2], the “inhibition of cell proliferation” value is 82% and the IC50 was 61 nM.

Consider “6717 (TCCCGCCTGTGACATGCATT; sugars from the 5' end m6 d8 m6, all phosphorothioate, T or U not given here) [Oligonucleotide 6717]”, for which the “inhibition of c-raf mRNA expression” value in the series with c-raf mRNA is recorded as “greater than 90%”.

For the substance “7849 (dC*dT*dC*dG*dC*dC*dC*dG*dC*dT*dC*dC*dT*dC*dC*dT*dC*dC*dC*dC) [Oligonucleotide 7849]”, in the series on c-raf mRNA, the “inhibition of c-raf mRNA expression” value was over 70%.

For the substance “7854 (TTCTCCTCCTCCCCTGGCAG; sugars from the 5' end m12 d8, all phosphorothioate, T or U not given here) [Oligonucleotide 7854]”, the “inhibition of c-raf mRNA expression” value with c-raf mRNA is listed as over 70%.

For “7856 (dT*dT*dC*dT*dC*dG*dC*dC*dC*dG*dC*dT*dC*dC*dT*dC*dC*dT*dC*dC) [Oligonucleotide 7856]”, the “inhibition of c-raf mRNA expression” value in the series on c-raf mRNA is listed as over 70%.

Turning to “CdCdAd CdAdCd CdGdAd CdGdGd CdGdCd CdCd [Oligonucleotide 2570, reference compound]”, in series [1], the “inhibition of ras-luciferase activity” value is listed as “dose-dependent inhibition of ras-luciferase activity” and the “selectivity toward the mutant form of ras-luciferase as compared to the normal form” value is listed as “approximate threefold selectivity”. Further, the “inhibition of ras expression in HeLa cells” value in series [3] was “did not inhibit ras expression in HeLa cells”. The “degradation in HeLa cell extract” value in series [4] is listed as “no degradation after 5 hours”. In the series on ras mRNA, the “inhibition of ras expression / decrease of ras mRNA” value worked out at 82% and the “inhibition of ras expression in T24 cells” value was “inhibited ras expression in T24 cells; also recorded: decreased ras mRNA levels in T24 cells”. This substance also showed an IC50 in the series on H-ras of 150 nM. In addition, the “inhibition of T24 cell proliferation relative to inhibition of HeLa cells” value in series [2] (100 nM oligonucleotide concentration) is “four times as severe”. In addition, in series [2], the “inhibition of cell proliferation” value came out at 61% and the IC50 was determined as 98 nM. The “Tm (° C.)” value in series [5] was found to be 6 °C.

As to “T C C G T C AT C G C T C C T C A G G G [Oligonucleotide 2503]”, the “inhibition of ras expression in HeLa cells” value in series [3] is “inhibited ras expression in HeLa cells”. Moreover, in the series with ras mRNA, the “inhibition of ras expression / decrease of ras mRNA” value came to 71% and the “inhibition of ras expression in T24 cells” value is recorded as “inhibited ras expression in T24 cells”.

Take “TCCCGCCTGTGACATGCATT (sugars from the 5' end m7 d6 m7, all phosphorothioate, T or U not given here) [Oligonucleotide 6720]”: the “inhibition of c-raf mRNA expression” value with c-raf mRNA is “greater than 70%”.

Regarding “TCCTCCTCCCCGCGGCGGGT (sugars from the 5' end m11 d9, all phosphorothioate, T or U not given here) [Oligonucleotide 7848]”, the “inhibition of c-raf mRNA expression” value in the series on c-raf mRNA is over 70%.
